Literature values in patent publication US6340480B1, “Natural composition for the treatment of circulatory conditions” (priority 1998, dated 2002).

System: Activated Macrophages
Settings: for killing certain tumor cells; literature study

## CC(C)=CCC[C@](C)(O[C@@H]1O[C@H](CO)[C@@H](O)[C@H](O)[C@H]1O)[C@H]1CC[C@]2(C)[C@@H]1[C@H](O)C[C@@H]1[C@@]3(C)CC[C@H](O)C(C)(C)[C@@H]3[C@@H](O[C@@H]3O[C@H](CO)[C@@H](O)[C@H](O)[C@H]3O)C[C@]12C [RG1]
  production of NO: enhances the production of NO
